# Literature values as cited in paper PMC8147660 (The Prostate, 2018).
# How the values were obtained:
# PSA = conditions: read-out: PSA Ki; described in previous studies
# chymotrypsin = conditions: read-out: Ki for chymotrypsin; described in previous studies
# [1] = cleared via A2M-receptor/LRP in the liver
Substance,Ki (PSA) [nM],Ki (chymotrypsin) [nM],Plasma half-life of the complex [1]
Ahx-FSQn(boro)Bpg,72,580,
PSA-A2M: PSA complexed with the serum protease inhibitor alpha-2-macroglobulin,,,a few minutes
